Experimental data: PMC12321279, “Novel 4,5‐Dihydrothiazole‐Phenylpiperazine Derivatives: Synthesis, Docking Studies and Pharmacological Evaluation as Serotonergic Agents” (Chemmedchem, 2025)

Tests used:
[1] = test system: mice; experiment: Forced swim test (FST, Porsolt's test); type: in vivo
Procedure: The tests were performed on male white mice of the Albino Swiss strain, whose weight was between 24 and 30 g in Experimental Medicine Center, Medical University of Lublin, Poland. The animals were housed (four/five per cage). Before conducting the experimental tests, the animals were subjected to an adaptation that lasted seven days. This consisted of keeping them in a room with relatively constant conditions: a temperature of 22 ± 1 °C, a humidity of 55 ± 5% and lighting that mimicked the natural day and night rhythm (12 h/12 h). Constant access to food and water was provided. Standard feed—LSM Motycz pelleted feed—and tap water were used. Mice were randomly allocated to study groups. Each group was represented by 8–10 animals, depending on the research schedule. The experiments were performed according to the procedures set out in the regulations for animal experiments: National Institute of Health Guidelines for the Care and Use of Laboratory Animals (8th edition) and to the European Community Council Directive for the Care and Use of Laboratory Animals of 22 September 2010 (2010/63/EU). The study was approved by the Local Ethical Committee in Lublin (number of ethical approvals: 27/2023). Tested compounds: FG‐1, FG‐4, FG‐5, FG‐6, FG‐7, FG‐8, and FG‐18 were finely ground in mortars with the addition of the emulsifier Tween‐80. A suspension was obtained, which was then diluted with aqueous solution of 0.5% methylcellulose (tylose). The mixture was then administered intraperitoneally (i.p.) to the animals 60 min before the start of the experiments. Animals in the control groups received a 0.5% tylose solution. All substances were administered via the same route of administration in appropriate dose and volume of 0.1 mL per 10 g of animal body weight. Prior to the administration of the drug, the animals were weighed, during the interval between tests, they were provided with food, water, and constant living conditions.
The study was carried out using the test proposed by R. Porsolt.^[ [46] ^] The method is based on the observation of an animal forced to swim in a confined space from which there is no escape. After an initial period of vigorous attempts to get out, the animal finally gives up on escaping. The test consists of immersing the mouse individually in a cylinder (diameter 10 cm, height 25 cm) filled with water (at a temperature of 23–25 °C) to a height of 10 cm for 6 min. In this test, two parameters were measured: immobility time in seconds (s), understood as the state in which the mouse makes only those movements that are necessary to keep the head above water, and the latency to the first immobility (s). Measurements were taken during the last 4 min of the experiment, starting from the 2nd to the 6th minute. At the end of each session, the animals were removed from the cylinders, dried with a towel, and placed near a heater until completely dry. Antidepressants typically show increased latency and decreased immobility in this test.

[2] = biological target: 5‐HT2A receptor (Rattus norvegicus, UniProt P14842); experiment: Inhibition of 5‐HT‐evoked contractions in isolated rat ileum; parameters: segments (1–1.5 cm) of ileum were removed, flushed of luminal contents, and placed in Krebs solution; from tissue; host or cells: isolated rat (Sprague-Dawley) ileum segments; conditions: 5‐HT 10^−5 M, compounds 10^−8–10^−5 M; for Emax: read-out: EMAX, maximal inhibitory effect on 5‐HT‐induced contractions in the rat ileum; for IC50: IC50, inhibition of 5‐HT‐induced contractions in the rat ileum, contact time 10 min
Procedure: Male rats (Sprague‐Dawley, 160–200 g; Charles River Laboratories; Calco, Italy) were manipulated and cared for in strict compliance with the principles of laboratory animal care. Experimental procedures were conducted in conformity with Italian (D.L. 26/2014) and European (directive 2010/63/EU) regulations on the protection of animals used for scientific purposes and approved by the Italian Ministry. Animal housing complied with recent pharmacological guidance.^[ [40] ^] All animals weighing 160–200 g were used after a 1‐week acclimation period (temperature 23 ± 2 °C; humidity 60%, free access to water and standard food).
The segments were prepared as previously described:^[ [41] ^] the segments were set up in such a way as to record contractions mainly from the longitudinal axis, in an organ bath containing 20 mL of Krebs solution, bubbled with 95% O2 and 5% CO2 and maintained at 37 °C. The tissues were connected to an isotonic transducer (load: 0.5 g), connected to Power Lab system (Ugo Basile, Comerio, Italy). Ileal segments were equilibrated for 60 min^[ [16] ^] followed by three repeated additions of submaximal concentration of 5‐HT (10^−5 M) in order to record stable control contractions. […] The contact time for each concentration was 10 min. The compounds were dissolved in DMSO. […] Results are expressed as mean (SEM). […] The IC50 and Emax values were calculated with the aid of a computer program (GraphPad Prism 5).

[3] = 15 mg kg^−1 i.p. 60 min before test
[4] = 30 mg kg^−1 i.p. 60 min before test
[5] = 7.5 mg kg^−1 i.p. 60 min before test

Sequence of 5‐HT2A receptor (P14842 whole entry): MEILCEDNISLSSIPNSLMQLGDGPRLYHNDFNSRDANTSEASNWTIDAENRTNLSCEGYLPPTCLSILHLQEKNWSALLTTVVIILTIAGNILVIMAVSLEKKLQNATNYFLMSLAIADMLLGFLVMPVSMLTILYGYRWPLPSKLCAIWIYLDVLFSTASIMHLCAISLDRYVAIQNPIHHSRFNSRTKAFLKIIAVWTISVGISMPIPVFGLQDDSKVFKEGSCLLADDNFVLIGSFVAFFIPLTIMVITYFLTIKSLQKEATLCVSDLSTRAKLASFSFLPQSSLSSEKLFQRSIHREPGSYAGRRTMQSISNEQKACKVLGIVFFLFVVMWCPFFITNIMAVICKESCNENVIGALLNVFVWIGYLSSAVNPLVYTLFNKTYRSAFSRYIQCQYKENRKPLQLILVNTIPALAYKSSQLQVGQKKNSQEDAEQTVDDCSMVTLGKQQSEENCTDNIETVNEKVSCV

## O=C(NCCCN1CCN(c2ccccc2C2=NCCS2)CC1)c1ccccn1 [FG‐1, N‐(3‐(4‐(2‐(4,5‐dihydrothiazol‐2‐yl) phenyl) piperazin‐1‐yl) propyl) picolinamide]
[1]; [3]
  FST, total duration of immobility: significant decrease in immobility
[1]; [4]
  FST, latency to first immobility: significant increase in latency to first immobility
  FST, total duration of immobility: significant decrease in immobility

## O=C(NCCCN1CCN(c2cccc(C3=NCCS3)c2)CC1)c1ccccn1 [FG‐2, N‐(3‐(4‐(3‐(4,5‐dihydrothiazol‐2‐yl) phenyl) piperazin‐1‐yl) propyl) picolinamide]
[2]
  Emax: 25.4%
  IC50: 6120 nM

## O=C(NCCCN1CCN(c2cccc(C3=NCCS3)c2)CC1)c1ccncc1 [FG‐5, N‐(3‐(4‐(3‐(4,5‐dihydrothiazol‐2‐yl) phenyl) piperazin‐1‐yl) propyl) isonicotinamide]
[1]; [3]
  FST, total duration of immobility: significant decrease in immobility
[1]; [4]
  FST, latency to first immobility: significant increase in latency to first immobility
  FST, total duration of immobility: significant decrease in immobility

## O=C(NCCCN1CCN(c2ccc(C3=NCCS3)cc2)CC1)c1ccncc1 [FG‐6, N‐(3‐(4‐(4‐(4,5‐dihydrothiazol‐2‐yl) phenyl) piperazin‐1‐yl) propyl) isonicotinamide]
[1]; [5]
  FST, latency to first immobility: significant increase in latency to first immobility
  FST, total duration of immobility: significant decrease in immobility
[1]; [3]
  FST, latency to first immobility: significant increase in latency to first immobility
  FST, total duration of immobility: significant decrease in immobility

## O=C1C2C3C=CC(C3)C2C(=O)N1OCCCN1CCN(c2ccccc2C2=NCCS2)CC1 (centres unmarked) [FG‐7, 2‐(3‐(4‐(2‐(4,5‐dihydrothiazol‐2‐yl) phenyl) piperazin‐1‐yl) propoxy)‐3a,4,7,7a‐tetrahydro‐1 H‐4,7‐methanoisoindole‐1,3(2 H)‐dione]
[2]
  Emax: 24.5%
  IC50: 1790 nM

## O=C1C2C3C=CC(C3)C2C(=O)N1OCCCN1CCN(c2cccc(C3=NCCS3)c2)CC1 (centres unmarked) [FG‐8, 2‐(3‐(4‐(3‐(4,5‐dihydrothiazol‐2‐yl) phenyl) piperazin‐1‐yl) propoxy)‐3a,4,7,7a‐tetrahydro‐1H‐4,7‐methanoisoindole‐1,3(2H)‐dione]
[2]
  Emax: 21.4%
  IC50: 155 nM
[1]; [4]
  FST, latency to first immobility: significant increase in latency to first immobility
  FST, total duration of immobility: significant decrease in immobility

## O=C(NCCCN1CCN(c2ccc(C3=NCCS3)cc2)CC1)C1CC2C=CC1C2 (stereo not drawn) [FG‐18, Endo‐ N‐(3‐(4‐(4‐(4,5‐dihydrothiazol‐2‐yl)phenyl)piperazin‐1‐yl)propyl) bicyclo[2.2.1]hept‐5‐ene‐2‐carboxamide]
[2]
  Emax: 32.8%
  IC50: 2970 nM
